Assay results taken from patent US11684682B2, “Chelating AAZTA conjugates and complexes thereof” (BRACCO IMAGING S.P.A., priority 2018, dated 2023).
Like-named read-outs stand apart in the source and are kept apart here.

Assays:
[1] = Equilibrium study of Bi(AAZTA): competition of AAZTA with NTA for Bi^3+ by UV-spectrophotometry; format: physicochemical; conditions: 0.15 M NaClO4
Description: The stability constant of Bi(AAZTA) was determined by following the competition reaction of AAZTA with NTA for Bi^3+ (Eq. (10)) with UV-spectrophotometry in the wavelength range of 210-350 nm. The concentration of Bi^3+ and NTA was 30.2 μM and 10 mM while that of the AAZTA was varied between 0 and 50 μM (6×2 mL samples with the addition of AAZTA to the pre-prepared Bi(NTA)2 complex) in 0.15 M NaClO4 solution. The pH was adjusted to pH=7.4 by stepwise addition of concentrated NaOH or HClO4. The samples were kept at 50° C. for a week and at 25° C. for two weeks in order to attain the equilibrium (the time needed to reach the equilibria was determined by spectrophotometry). The spectrophotometric measurements were made with the use of PerkinElmer Lambda 365 UV-Vis spectrophotometer at 25° C., using 1.0 cm cells. For the equilibrium calculation, the protonation constants of AAZTA and NTA ligands (AAZTA: log K1^H=10.29, log K2^H=6.51, log K3^H=3.86, log K4^H=1.94, log K5^H=1.00; NTA: log K1^H=9.22, log K2^H=2.98, log K3^H=1.06; 25° C., 0.15 M NaClO4) and the stability constants of Bi(NTA) and Bi(NTA)2 complexes (log KBi(NTA)=16.97, log βBi(NTA)2=26.21, 25° C., 0.15 M NaClO4) have been determined as it is described in the literature (Baranyai, Eur. J. Inorg. Chem., 2013, 147-162, KARADAKOV, Talanta, 1970, 17, 883-887). The equilibrium constants were calculated with the program PSEQUAD (L. Zekany and I. Nagypal in PSEQUAD, Vol. (Ed. D. Leggett), Springer US, 1985, pp. 291-353). Bi(NTA)2+HxAAZTA ? Bi(AAZTA)+2HyNTA (10) Thermodynamic stability constant of Bi(AAZTA) calculated from the UV-spectrophotometric studies of Bi^3+-NTA-AAZTA systems is log KBi(AAZTA)=26.45 (6) at 25° C. in 0.15 M NaClO4. By taking into account the protonation constant of AAZTA ligand (log K1^H=10.29, log K2^H=6.51, log K3^H=3.86, log K4^H=1.94, log K5^H=1.00, 25° C., 0.15 M NaClO4) and the stability constant of Bi(AAZTA) (log KBi(AAZTA)=26.45, 25° C. in 0.15 M NaClO4), the conditional stability constant of Bi(AAZTA) was calculated to be log K^condBi(AAZTA)=log KBi(AAZTA)/(1+αH)=23.5 at pH=7.4 and 25° C. in 0.15 M NaClO4 (αH=K1^H[H^+]+K1^HK2^H[H^+]^2+ . . . +K1^HK2^H . . . Kn^H[H^+]^n and K1^H, K2^H, . . . Kn^H are the protonation constant of the free ligand at pH=7.4 in 0.15 M NaClO4 solution).

[2] = 0.15 M NaCl, 25° C.; cited from earlier work
[3] = Transchelation reaction between Bi(AAZTA) and DTPA by UV-spectrophotometry; format: physicochemical; conditions: pH=9.0, 25° C., 0.15 M NaClO4
Description: The kinertic properties of Bi(AAZTA) was determined by following the transchelation reaction between Bi(AAZTA) and DTPA with UV-spectrophotometry at 278 nm and 25° C. in 0.15 M NaClO4 solution (stability constant of Bi(DTPA) is log KBi(DTPA)=29.3 at 25° C. in 0.6 M NaClO4, V. Kornev, A. Troubachev, Russ. J. Inorg. Chem, 1987, 32, 1419). In these experiments the concentration of Bi(AAZTA) was 0.1 mM while DTPA was applied in 10 and 20 fold excess to ensure the occurrence of pseudo-first order conditions. The pH was adjusted to 8.5, 9.0, 9.5, 10.0, 10.5 and 11.0 by stepwise addition of concentrated NaOH or HClO4. For keeping the pH values constant 0.01 M N-methyl-piperazine (pH≤10) buffers were used. At pH>10, buffer was not used to keep the constant pH due to the presence of OH^− in a high concentration. The pseudo-first-order rate constants (kd) were calculated by fitting the absorbance—time data sets for Bi(AAZTA)—DTPA system to Eq. (9). The dissociation rates (kd) of Bi(AAZTA) complex is independent from the [DTPA] and increase with the increase of pH.

[4] = format: physicochemical; conditions: 25° C., 0.15 M NaCl
Excerpt: The thermodynamic properties of Sc(AAZTA-TATE) complex were characterized by the conditional stability constant (log K^cond=log K^therm/(1+αH) where αH=K1^H[H^+]+K1^HK2^H[H^+]^2+ . . . +K1^HK2^H . . . Kn^H[H^+]^n and K1^H, K2^H, . . . Kn^H are the protonation constant of the free ligand) at pH=7.4 in 0.15 M NaCl solution. To determine the log K^cond value of Sc(AAZTA-TATE) complex, the competition reaction of AAZTA-TATE with NTA for Sc^3+ have been studied by ^45Sc NMR spectroscopy (Bruker Avance III 400 spectrometer at 9.4 T) with the integral of Sc(NTA)2 complex (δSc=59.9 ppm) formed in the reactions (Eq. (4), H3NTA=nitrilo-triacetic acid, pH=7.4, 25° C., 0.15 M NaCl).
[formula] For the equilibrium characterization of Sc(AAZTA-TATE), 7 samples were prepared in which the concentration of Sc^3+ and AAZTA-TATE was 203.3 μM and 206.2 μM, while that of the NTA was varied between 0.0 and 20.06 mM (7×1 mL samples were prepared by the addition of AAZTA-TATE to the pre-prepared Sc(NTA)2 complex) in 0.15 M NaCl solution. […] The samples were kept at 25° C. for 8 weeks in order to attain the equilibrium (the time needed to reach the equilibria was determined by ^45Sc NMR spectroscopy).
To compare the equilibrium properties of Sc(AAZTA-TATE) with that of Sc(AAZTA), the conditional stability constant of Sc(AAZTA) was determined by following the competition reaction of AAZTA with NTA for Sc^3+ with ^45Sc NMR spectroscopy by using the integral of Sc(NTA)2 complex (δSc=59.9 ppm) formed in the reactions (Eq. (5), pH=7.4, 25° C., 0.15 M NaCl).
For the equilibrium characterization of Sc(AAZTA), 7 samples were prepared in which the concentration of Sc^3+ and AAZTA was 203.3 μM and 207.1 μM, while that of the NTA was varied between 0 and 20.06 mM (7×2 mL samples with the addition of AAZTA to the pre-prepared […] complex) in 0.15 M NaCl solution. […] The samples were kept at 25° C. for 8 weeks in order to attain the equilibrium (the time needed to reach the equilibria was determined by ^45Sc NMR spectroscopy). […]

## CC1(N(CC(=O)O)CC(=O)O)CN(CC(=O)O)CCN(CC(=O)O)C1 [AAZTA, 6-amino-6-methylperhydro-1,4-diazepinetetraacetic acid]
[1]; 25° C.
  log K1^H (protonation constant): 10.29
  log K2^H (protonation constant): 6.51
  log K3^H (protonation constant): 3.86
  log K4^H (protonation constant): 1.94
  log K5^H (protonation constant): 1.00
[2]
  log K1^H (protonation constant): 9.98
  log K2^H (protonation constant): 6.52
  log K3^H (protonation constant): 3.76
  log K4^H (protonation constant): 2.21

## CC1(N(CC(=O)[O-])CC(=O)[O-])CN(CC(=O)[O-])CCN(CC(=O)[O-])C1.[Bi+3] [Bi(AAZTA)]
[1]; 25° C.
  log KBi(AAZTA) (thermodynamic stability constant): 26.45 (6)
[1]; pH=7.4, 25° C.
  log K^cond (conditional stability constant): 23.5
[3]
  kd (rate constant of dissociation): 1.67e-06 s⁻¹

## O=C(O)CN(CC(=O)O)CC(=O)O [NTA, nitrilo-triacetic acid, reference compound]
[4]
  log K1^H (protonation constant): 9.13 (1)
  log K2^H (protonation constant): 2.63 (2)
  log K3^H (protonation constant): 1.64 (3)
[1]; NTA ligand, 25° C.
  log K1^H (protonation constant): 9.22
  log K2^H (protonation constant): 2.98
  log K3^H (protonation constant): 1.06
